Experiments:
[1] = system: MIF-induced proliferation of mouse NIH 3T3 fibroblasts; assay: MIF-induced proliferation in mouse fibroblasts (3H-thymidine incorporation); assay type: cell-based; conditions: for Mean cpm (3H-thymidine incorporation): Compound (10×^10−6M) + MIF 50 ng/ml, nil 1087, MIF + vehicle 1452
Protocol: The activity of compounds was studied in a bioassay utilising MIF-induced proliferation of mouse NIH 3T3 fibroblasts. […] NIH 3T3 cells were propagated in DMEM/10% foetal calf serum (FCS). Prior to experimentation, cells were seeded at 10^4 cells/well in 96-well plates in DMEM/10% FCS for 18 hours. The media was then replaced with DMEM/0.1% FCS and the cells incubated for a further 18 hr. At time point −1 hr, culture medium was replaced with DMEM/0.1% FCS and cells were treated with a compound of the invention at a final concentration of 10 μM or vehicle. At time point zero, cells were treated with MIF at a final concentration of 50 ng/ml. At time point 6 hr the cells were pulsed with 1 µCi/well of ^3H-thymidine. At time point 24 hours, cells were harvested using a semi-automated cell harvester. The radioactivity incorporated into DNA was determined by liquid scintillation counting, with results expressed as ^3H-thymidine incorporation (cpm). Statistical significance was analysed using the Mann-Whitney test.

[2] = system: LPS-IFN—induced nitrite production; assay: MIF-dependent nitrite production in peritoneal macrophages (Greiss assay); assay type: cell-based, mouse; conditions: Mus musculus, Peritoneal macrophage, LPS 10 ng/ml + interferon-γ 10 units/ml, 24 h, read-out: % Inhibition of nitrite (± SD); for inhibition at 100 µM: compound 100 μM; for inhibition at 33 µM: compound 33 μM
Protocol: MIF is able to induce or facilitate the expression and release of a wide variety of pro-inflammatory and/or destructive molecules, including the release of macrophage nitric oxide (NO) ^(20). A compound with the ability to inhibit the cytokine or biological function of MIF might be expected to inhibit the activation of NO production by macrophages.
C57BL6/J male mice were injected intraperitoneally with 2 ml of thioglycolate. Three days later peritoneal macrophages were collected by lavaging the peritoneum with 3 ml of cold Hank's buffered saline solution. Cells from several mice were pooled, washed and re-suspended in DMEM supplemented with 5% FCS. Cells were plated in 96 well plastic tissue culture plates at 1×10^5 cells/well. Cells were treated in triplicate wells with compound or vehicle for 1 hour in a 5% CO2 incubator at 37° C. Cells were then treated with LPS (10 ng/ml) and recombinant human interferon-γ (10 units/ml) and incubated for 24 hours. After 24 hours, 50 μl of supernatant from each well was carefully removed and transferred to ELISA plates. The production of NO was measured by analysing the concentration of nitrite in culture supernatants, as measured by the Greiss assay ^(21). The results were calculated as the percentage inhibition of nitrite concentration in compound-treated cell culture supernatants, compared to that of vehicle-treated cells.

| SMILES | Mean cpm (3H-thymidine incorporation) [1] | inhibition at 100 µM [2] | also measured |
| --- | --- | --- | --- |
| COc1cc(C2OCCS2)ccc1O (stereo not shown) [Compound 29, 2-Methoxy-4-(1,3-oxathiolan-2-yl)phenol] | 1157 cpm | 9 ± 1% | – |
| CCC1(c2ccc(Cl)cc2)OCC(C)O1 (stereo not shown) [Compound 42, 2-(4-Chlorophenyl)-2-ethyl-4-methyl-1,3-dioxolane] | 1168 cpm | – | – |
| CC1(c2ccc(Cl)cc2)OCCO1 [Compound 21, 2-(4-Chlorophenyl)-2-methyl-1,3-dioxolane] | 1220 cpm | – | – |
| Cc1ccc(C2(C)OCCCO2)cc1 [Compound 22, 2-Methyl-2-(4-methylphenyl)-1,3-dioxane] | 1310 cpm | – | – |
| COc1ccc(-c2ccc(OC(F)(F)F)cc2)cc1 [Compound 36, 4-Methoxy-4′-(trifluoromethoxy)-1,1′-biphenyl] | 1033 cpm | 57 ± 1% | – |
| N#Cc1ccc(C2OCCS2)cc1 (stereo not shown) [Compound 30, 4-(1,3-Oxathiolan-2-yl)benzonitrile] | – | 31 ± 2% | – |
| CCC1(CC)COC(c2ccc(F)c(C#N)c2)OC1 [Compound 43, 5-(5,5-Diethyl-1,3-dioxan-2-yl)-2-fluorobenzenecarbonitrile] | 1106 cpm | 34 ± 1% | – |
| CCCCCCCCC1(c2ccc(O)cc2)OC(C)CS1 (stereo not shown) [Compound 34, 4-(5-Methyl-2-octyl-1,3-oxathiolan-2-yl)phenol] | – | 24 ± 1% | – |
| COc1ccc(-c2ccc(OC(F)(F)F)cc2)c(OC)n1 [Compound 14, 2,6-Dimethoxy-3-[4-(trifluoromethoxy)phenyl]pyridine] | 1420 cpm | 27 ± 3% | – |
| OCCCCC1(c2ccc(F)cc2)OCCO1 [Compound 10, 4-[2-(4-Fluorophenyl)-1,3-dioxolan-2-yl]butan-1-ol] | 1187 cpm | – | – |
| CCCCCCC1(c2ccc(C)cc2)OCCO1 [Compound 19, 2-Hexyl-2-(4-methylphenyl)-1,3-dioxolane] | 1209 cpm | – | – |
| c1csc(-c2ccc(C3NCCS3)cc2)c1 (stereo not shown) [Compound 15, 2-[4-(2-Thienyl)phenyl]-1,3-thiazolane] | 955.6 cpm | 12 ± 1% | – |
| CCCCCCC1(c2cc(OC)cc(OC)c2)OCCO1 [Compound 41, 2-(3,5-Dimethoxyphenyl)-2-hexyl-1,3-dioxolane] | – | 26 ± 1% | – |
| COc1ccc(C2OCCS2)cc1 (stereo not shown) [Compound 27, 2-(4-Methoxyphenyl)-1,3-oxathiolane] | – | 24 ± 1% | – |
| CC1(c2ccc(Cl)cc2)OCCCO1 [Compound 20, 2-(4-Chlorophenyl)-2-methyl-1,3-dioxane] | 1214 cpm | – | – |
| CCCCC1(c2ccc(Br)cc2)OCCC(CCC)S1 (stereo not shown) [Compound 39, 2-(4-bromophenyl)-2-butyl-4-propyl-1,3-oxathiane] | 956.1 cpm | – | – |
| CC1(c2ccc([N+](=O)[O-])cc2)OCCO1 [Compound 25, 2-(4-Nitrophenyl)-2-methyl-1,3-dioxolane] | 1117 cpm | – | inhibition at 33 µM [2]: 7 ± 1% |

| SMILES | Mean cpm (3H-thymidine incorporation) [1] | inhibition at 100 µM [2] | also measured |
| --- | --- | --- | --- |
| Clc1ccc(C2=NCCO2)cc1 [Compound 44, 2-(4-Chlorophenyl)-4,5-dihydro-1,3-oxazole] | 1294 cpm | – | – |
| N#Cc1ccc(C2OCCO2)cc1 [Compound 40, 4-(1,3-Dioxolan-2-yl)benzenecarbonitrile] | 1143 cpm | 7 ± 2% | – |
| CC1CSC(c2ccc(C#N)cc2)O1 (stereo not shown) [Compound 32, 4-(5-Methyl-1,3-oxathiolan-2-yl)benzonitrile] | 1196 cpm | 14 ± 4% | – |
| Cc1ccc(C2(C)SCCS2)cc1 [Compound 18, 2-Methyl-2-(4-methylphenyl)-1,3-dithiolane] | – | 40 ± 1% | significant inhibition of MIF-induced proliferation ([1]; 10 μM, P<0.05, FIG. 9): significant inhibition |
| CC1CSC(c2ccc(F)c(C#N)c2)O1 (stereo not shown) [Compound 35, 2-Fluoro-5-(5-methyl-1,3-oxathiolan-2-yl)benzenecarbonitrile] | – | 18 ± 2% | – |
| Cc1ccc(C2(C)OCCO2)cc1 [Compound 23, 2-Methyl-2-(4-methylphenyl)-1,3-dioxolane] | 1344 cpm | – | – |
| Cc1ccc(C2=NCCO2)cc1 [Compound 45, 2-(4-Methylphenyl)-4,5-dihydro-1,3-oxazole] | – | 7 ± 1% | – |
| COC(=O)CCCC1(c2ccc(F)cc2)OCCO1 [Compound 9, Methyl 4-[2-(4-fluorophenyl)-1,3-dioxolan-2-yl]butanoate] | 1071 cpm | – | inhibition at 1 µM ([2]; compound 1 μM): 16 ± 1% |
| CC1(c2ccc(Cl)cc2)SCCS1 [Compound 24, 2-(4-Chlorophenyl)-2-methyl-1,3-dithiolane] | 1318 cpm | – | inhibition at 33 µM [2]: 21 ± 2% |
| CC1(c2ccc([N+](=O)[O-])cc2)OCCCO1 [Compound 26, 2-(4-Nitrophenyl)-2-methyl-1,3-dioxane] | 1141 cpm | – | – |
| CCC1(c2ccc(Br)cc2)OCCS1 (stereo not shown) [Compound 31, 2-(4-Bromophenyl)-2-ethyl-1,3-oxathiolane] | – | 35 ± 3% | – |
| CCCCC1(c2ccc(Br)cc2)OCCC(CCC)S1 (stereo not shown) [Compound 38, 2-(4-bromophenyl)-2-butyl-4-propyl-1,3-oxathiane] | – | 35% | – |
| CCCCC1(c2ccc(Br)cc2)OCCO1 [Compound 11, 2-(4′-Bromophenyl)-2-butyl-1,3-dioxolane] | 1245 cpm | – | inhibition at 33 µM [2]: 19 ± 1% |
| COc1cc(C2OCCS2)cc(OC)c1OC (stereo not shown) [Compound 28, 2-(3,4,5-Trimethoxyphenyl)-1,3-oxathiolane] | 1219 cpm | – | – |
| CCC1(c2ccc(OC)cc2)OCCO1 [Compound 16, 2-Ethyl-2-(4-methoxyphenyl)-1,3-dioxolane] | 1335 cpm | – | – |
| COc1ccc(-c2ccc(C(F)(F)F)cc2)c(OC)n1 [Compound 37, 2,6-Dimethoxy-3-[4-(trifluoromethyl)phenyl]pyridine] | 1045 cpm | 24 ± 1% | – |

— US7863313B2, “Methods for the treatment of inflammatory diseases” (Cortical PTY LTD, priority 2003, dated 2011)
